Test system: Echinochloa crus-galli
Assay: Test Example 1: herbicidal effect test by treatment of rice paddy soil (immediately after seeding)
Format: in vivo
Conditions: 120 g/10a active ingredient, dry weight vs untreated area, 14 days after treatment
Summary of the method: (§1)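 Paddy soil in pots with compound fertilizer, puddled; 30 seeds per species sown at 0–1 cm, flooded ~3 cm, greenhouse. Water-diluted emulsions dropped onto water immediately after seeding at 120 g active ingredient per 10 ares, duplicate. Herbicidal rate (%) from plant dry weight versus untreated, 14 days after treatment.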

| Compound | Herbicidal rate (%) Echinochloa crus-galli [%] |
| --- | --- |
| Cc1c(Cc2ccccc2NS(=O)(=O)C(F)(F)F)c(=O)on1C(C)c1ccc(Cl)cc1 (stereo not shown) [Compound 1-207] | 100 |
| Cc1c(Cc2ccccc2NS(=O)(=O)C(F)(F)F)c(=O)on1Cc1ccc(F)c(F)c1 [Compound 1-200] | 90 |
| Cc1c(Cc2ccccc2NS(=O)(=O)C(F)(F)F)c(=O)on1Cc1ccc(F)cc1F [Compound 1-199] | 100 |
| Cc1c(Cc2ccccc2N(S(=O)(=O)C(F)(F)F)S(=O)(=O)C(F)(F)F)c(=O)on1Cc1ccc(OC(F)(F)F)cc1 [Compound 1-1023] | 50 |
| Cc1c(Cc2ccccc2NS(=O)(=O)C(F)(F)F)c(=O)on1Cc1ccc(SC(F)(F)F)cc1 [Compound 1-198] | 80 |
| Cc1c(Cc2ccccc2NS(=O)(=O)C(F)(F)F)c(=O)on1Cc1ccc(C(F)(F)F)cc1 [Compound 1-194] | 80 |
| Cc1c(Cc2ccccc2N(S(=O)(=O)C(F)(F)F)S(=O)(=O)C(F)(F)F)c(=O)on1Cc1ccc(C(C)(C)C)cc1 [Compound 1-1019] | 40 |
| CCOC(=O)N(c1ccccc1Cc1c(C)n(CC(C)C)oc1=O)S(=O)(=O)C(F)(F)F [Compound 1-608] | 70 |

Test system: Scirpus juncoides
Assay: as above
Format: in vivo
Conditions: 120 g/10a active ingredient, dry weight vs untreated area, 14 days after treatment
Summary of the method: as §1

| Compound | Herbicidal rate (%) Scirpus juncoides [%] |
| --- | --- |
| Cc1c(Cc2ccccc2NS(=O)(=O)C(F)(F)F)c(=O)on1C(C)c1ccc(Cl)cc1 (stereo not shown) [Compound 1-207] | 90 |
| Cc1c(Cc2ccccc2NS(=O)(=O)C(F)(F)F)c(=O)on1Cc1ccc(F)c(F)c1 [Compound 1-200] | 90 |
| Cc1c(Cc2ccccc2NS(=O)(=O)C(F)(F)F)c(=O)on1Cc1ccc(F)cc1F [Compound 1-199] | 90 |
| Cc1c(Cc2ccccc2N(S(=O)(=O)C(F)(F)F)S(=O)(=O)C(F)(F)F)c(=O)on1Cc1ccc(OC(F)(F)F)cc1 [Compound 1-1023] | 50 |
| Cc1c(Cc2ccccc2NS(=O)(=O)C(F)(F)F)c(=O)on1Cc1ccc(SC(F)(F)F)cc1 [Compound 1-198] | 80 |
| Cc1c(Cc2ccccc2NS(=O)(=O)C(F)(F)F)c(=O)on1Cc1ccc(C(F)(F)F)cc1 [Compound 1-194] | 80 |
| Cc1c(Cc2ccccc2N(S(=O)(=O)C(F)(F)F)S(=O)(=O)C(F)(F)F)c(=O)on1Cc1ccc(C(C)(C)C)cc1 [Compound 1-1019] | 40 |
| CCOC(=O)N(c1ccccc1Cc1c(C)n(CC(C)C)oc1=O)S(=O)(=O)C(F)(F)F [Compound 1-608] | 90 |

Test system: broad leaf weeds (Lindernia pyxidaria and Monochoria vaginalis)
Assay: as above
Format: in vivo
Conditions: Lindernia pyxidaria, 120 g/10a active ingredient, dry weight vs untreated area, 14 days after treatment
Summary of the method: as §1

| Compound | Herbicidal rate (%) Lindernia pyxidaria [%] |
| --- | --- |
| Cc1c(Cc2ccccc2NS(=O)(=O)C(F)(F)F)c(=O)on1C(C)c1ccc(Cl)cc1 (stereo not shown) [Compound 1-207] | 100 |
| Cc1c(Cc2ccccc2NS(=O)(=O)C(F)(F)F)c(=O)on1Cc1ccc(F)c(F)c1 [Compound 1-200] | 100 |
| Cc1c(Cc2ccccc2NS(=O)(=O)C(F)(F)F)c(=O)on1Cc1ccc(F)cc1F [Compound 1-199] | 100 |
| Cc1c(Cc2ccccc2N(S(=O)(=O)C(F)(F)F)S(=O)(=O)C(F)(F)F)c(=O)on1Cc1ccc(OC(F)(F)F)cc1 [Compound 1-1023] | 40 |
| Cc1c(Cc2ccccc2NS(=O)(=O)C(F)(F)F)c(=O)on1Cc1ccc(SC(F)(F)F)cc1 [Compound 1-198] | 100 |
| Cc1c(Cc2ccccc2NS(=O)(=O)C(F)(F)F)c(=O)on1Cc1ccc(C(F)(F)F)cc1 [Compound 1-194] | 100 |
| Cc1c(Cc2ccccc2N(S(=O)(=O)C(F)(F)F)S(=O)(=O)C(F)(F)F)c(=O)on1Cc1ccc(C(C)(C)C)cc1 [Compound 1-1019] | 60 |
| CCOC(=O)N(c1ccccc1Cc1c(C)n(CC(C)C)oc1=O)S(=O)(=O)C(F)(F)F [Compound 1-608] | 70 |

Same assay, conditions: Monochoria vaginalis, 120 g/10a active ingredient, dry weight vs untreated area, 14 days after treatment

| Compound | Herbicidal rate (%) Monochoria vaginalis [%] |
| --- | --- |
| Cc1c(Cc2ccccc2NS(=O)(=O)C(F)(F)F)c(=O)on1C(C)c1ccc(Cl)cc1 (stereo not shown) [Compound 1-207] | 100 |
| Cc1c(Cc2ccccc2NS(=O)(=O)C(F)(F)F)c(=O)on1Cc1ccc(F)c(F)c1 [Compound 1-200] | 100 |
| Cc1c(Cc2ccccc2NS(=O)(=O)C(F)(F)F)c(=O)on1Cc1ccc(F)cc1F [Compound 1-199] | 100 |
| Cc1c(Cc2ccccc2N(S(=O)(=O)C(F)(F)F)S(=O)(=O)C(F)(F)F)c(=O)on1Cc1ccc(OC(F)(F)F)cc1 [Compound 1-1023] | 50 |
| Cc1c(Cc2ccccc2NS(=O)(=O)C(F)(F)F)c(=O)on1Cc1ccc(SC(F)(F)F)cc1 [Compound 1-198] | 100 |
| Cc1c(Cc2ccccc2NS(=O)(=O)C(F)(F)F)c(=O)on1Cc1ccc(C(F)(F)F)cc1 [Compound 1-194] | 80 |
| Cc1c(Cc2ccccc2N(S(=O)(=O)C(F)(F)F)S(=O)(=O)C(F)(F)F)c(=O)on1Cc1ccc(C(C)(C)C)cc1 [Compound 1-1019] | 60 |
| CCOC(=O)N(c1ccccc1Cc1c(C)n(CC(C)C)oc1=O)S(=O)(=O)C(F)(F)F [Compound 1-608] | 80 |

Test system: Echinochloa crus-galli
Assay: Test Example 2: herbicidal effect test by treatment during growing period in paddy rice cultivation (seven days after seeding)
Format: in vivo
Conditions: 120 g/10a active ingredient, assessed 14 days after treatment, dry weight vs untreated area
Summary of the method: (§2)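 Herbicidal rate = (1 − treated/untreated mean dry weight) × 100, scored 14 days after application, two replicates per rate. Treatment: diluted emulsion dropped onto paddy water seven days after sowing, 120 g active ingredient per 10 ares, in a glass greenhouse.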

| Compound | Herbicidal rate (%) Echinochloa crus-galli [%] |
| --- | --- |
| Cc1c(Cc2ccccc2NS(=O)(=O)C(F)(F)F)c(=O)on1C(C)c1ccc(Cl)cc1 (stereo not shown) [Compound 1-207] | 60 |
| Cc1c(Cc2ccccc2NS(=O)(=O)C(F)(F)F)c(=O)on1Cc1ccc(F)c(F)c1 [Compound 1-200] | 60 |
| Cc1c(Cc2ccccc2NS(=O)(=O)C(F)(F)F)c(=O)on1Cc1ccc(F)cc1F [Compound 1-199] | 90 |
| Cc1c(Cc2ccccc2N(S(=O)(=O)C(F)(F)F)S(=O)(=O)C(F)(F)F)c(=O)on1Cc1ccc(OC(F)(F)F)cc1 [Compound 1-1023] | 40 |
| Cc1c(Cc2ccccc2NS(=O)(=O)C(F)(F)F)c(=O)on1Cc1ccc(SC(F)(F)F)cc1 [Compound 1-198] | 40 |
| Cc1c(Cc2ccccc2NS(=O)(=O)C(F)(F)F)c(=O)on1Cc1ccc(C(F)(F)F)cc1 [Compound 1-194] | 40 |
| Cc1c(Cc2ccccc2N(S(=O)(=O)C(F)(F)F)S(=O)(=O)C(F)(F)F)c(=O)on1Cc1ccc(C(C)(C)C)cc1 [Compound 1-1019] | 0 |
| CCOC(=O)N(c1ccccc1Cc1c(C)n(CC(C)C)oc1=O)S(=O)(=O)C(F)(F)F [Compound 1-608] | 90 |

Test system: Scirpus juncoides
Assay: as above
Format: in vivo
Conditions: 120 g/10a active ingredient, assessed 14 days after treatment, dry weight vs untreated area
Summary of the method: as §2

| Compound | Herbicidal rate (%) Scirpus juncoides [%] |
| --- | --- |
| Cc1c(Cc2ccccc2NS(=O)(=O)C(F)(F)F)c(=O)on1C(C)c1ccc(Cl)cc1 (stereo not shown) [Compound 1-207] | 70 |
| Cc1c(Cc2ccccc2NS(=O)(=O)C(F)(F)F)c(=O)on1Cc1ccc(F)c(F)c1 [Compound 1-200] | 80 |
| Cc1c(Cc2ccccc2NS(=O)(=O)C(F)(F)F)c(=O)on1Cc1ccc(F)cc1F [Compound 1-199] | 80 |
| Cc1c(Cc2ccccc2N(S(=O)(=O)C(F)(F)F)S(=O)(=O)C(F)(F)F)c(=O)on1Cc1ccc(OC(F)(F)F)cc1 [Compound 1-1023] | 40 |
| Cc1c(Cc2ccccc2NS(=O)(=O)C(F)(F)F)c(=O)on1Cc1ccc(SC(F)(F)F)cc1 [Compound 1-198] | 40 |
| Cc1c(Cc2ccccc2NS(=O)(=O)C(F)(F)F)c(=O)on1Cc1ccc(C(F)(F)F)cc1 [Compound 1-194] | 60 |
| Cc1c(Cc2ccccc2N(S(=O)(=O)C(F)(F)F)S(=O)(=O)C(F)(F)F)c(=O)on1Cc1ccc(C(C)(C)C)cc1 [Compound 1-1019] | 0 |
| CCOC(=O)N(c1ccccc1Cc1c(C)n(CC(C)C)oc1=O)S(=O)(=O)C(F)(F)F [Compound 1-608] | 80 |

Test system: broad leaf weeds (Lindernia pyxidaria and Monochoria vaginalis)
Assay: as above
Format: in vivo
Conditions: Lindernia pyxidaria, 120 g/10a active ingredient, assessed 14 days after treatment, dry weight vs untreated area
Summary of the method: as §2

| Compound | Herbicidal rate (%) Lindernia pyxidaria [%] |
| --- | --- |
| Cc1c(Cc2ccccc2NS(=O)(=O)C(F)(F)F)c(=O)on1C(C)c1ccc(Cl)cc1 (stereo not shown) [Compound 1-207] | 60 |
| Cc1c(Cc2ccccc2NS(=O)(=O)C(F)(F)F)c(=O)on1Cc1ccc(F)c(F)c1 [Compound 1-200] | 90 |
| Cc1c(Cc2ccccc2NS(=O)(=O)C(F)(F)F)c(=O)on1Cc1ccc(F)cc1F [Compound 1-199] | 80 |
| Cc1c(Cc2ccccc2N(S(=O)(=O)C(F)(F)F)S(=O)(=O)C(F)(F)F)c(=O)on1Cc1ccc(OC(F)(F)F)cc1 [Compound 1-1023] | 40 |
| Cc1c(Cc2ccccc2NS(=O)(=O)C(F)(F)F)c(=O)on1Cc1ccc(SC(F)(F)F)cc1 [Compound 1-198] | 90 |
| Cc1c(Cc2ccccc2NS(=O)(=O)C(F)(F)F)c(=O)on1Cc1ccc(C(F)(F)F)cc1 [Compound 1-194] | 60 |
| Cc1c(Cc2ccccc2N(S(=O)(=O)C(F)(F)F)S(=O)(=O)C(F)(F)F)c(=O)on1Cc1ccc(C(C)(C)C)cc1 [Compound 1-1019] | 40 |
| CCOC(=O)N(c1ccccc1Cc1c(C)n(CC(C)C)oc1=O)S(=O)(=O)C(F)(F)F [Compound 1-608] | 60 |

Same assay, conditions: Monochoria vaginalis, 120 g/10a active ingredient, assessed 14 days after treatment, dry weight vs untreated area

| Compound | Herbicidal rate (%) Monochoria vaginalis [%] |
| --- | --- |
| Cc1c(Cc2ccccc2NS(=O)(=O)C(F)(F)F)c(=O)on1C(C)c1ccc(Cl)cc1 (stereo not shown) [Compound 1-207] | 70 |
| Cc1c(Cc2ccccc2NS(=O)(=O)C(F)(F)F)c(=O)on1Cc1ccc(F)c(F)c1 [Compound 1-200] | 90 |
| Cc1c(Cc2ccccc2NS(=O)(=O)C(F)(F)F)c(=O)on1Cc1ccc(F)cc1F [Compound 1-199] | 80 |
| Cc1c(Cc2ccccc2N(S(=O)(=O)C(F)(F)F)S(=O)(=O)C(F)(F)F)c(=O)on1Cc1ccc(OC(F)(F)F)cc1 [Compound 1-1023] | 40 |
| Cc1c(Cc2ccccc2NS(=O)(=O)C(F)(F)F)c(=O)on1Cc1ccc(SC(F)(F)F)cc1 [Compound 1-198] | 90 |
| Cc1c(Cc2ccccc2NS(=O)(=O)C(F)(F)F)c(=O)on1Cc1ccc(C(F)(F)F)cc1 [Compound 1-194] | 60 |
| Cc1c(Cc2ccccc2N(S(=O)(=O)C(F)(F)F)S(=O)(=O)C(F)(F)F)c(=O)on1Cc1ccc(C(C)(C)C)cc1 [Compound 1-1019] | 40 |
| CCOC(=O)N(c1ccccc1Cc1c(C)n(CC(C)C)oc1=O)S(=O)(=O)C(F)(F)F [Compound 1-608] | 80 |
